Results taken from patent publication US9296716B2, “Androgen receptor ligands” (THE PROVOST, FELLOWS, FOUNDATION SCHOLARS, & THE OTHER …, priority 2011, dated 2016).

Target: T1, AR-LBD wt (Homo sapiens, UniProt P10275)
T1 sequence (P10275 669-900 limits assumed): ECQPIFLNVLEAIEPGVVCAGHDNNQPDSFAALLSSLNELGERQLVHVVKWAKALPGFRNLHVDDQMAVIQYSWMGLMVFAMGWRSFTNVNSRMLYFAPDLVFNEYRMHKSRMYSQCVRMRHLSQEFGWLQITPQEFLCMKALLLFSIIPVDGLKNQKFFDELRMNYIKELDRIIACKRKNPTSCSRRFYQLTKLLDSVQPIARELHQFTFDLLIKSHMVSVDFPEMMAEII
Assay: Lanthascreen TR-FRET AR coactivator (D11-FxxLF) assay, AR-LBD wt
Format: biochemical
Conditions: TR-FRET in agonist and antagonist mode

Compound	type of AR antagonism (full / partial)
COC(=O)c1ccc(O)c(/C=N/NC(=O)c2cc3ccccc3cc2O)c1 [MDG629]	full AR antagonists
COc1cccc(/C=N/NC(=O)c2cc3ccccc3cc2O)c1O [MDG617]	full AR antagonists
O=C(N/N=C/c1cc(O)ccc1O)c1cc2ccccc2cc1O [MDG611]	full AR antagonists
Cc1cccc(/C=N/NC(=O)c2cc3ccccc3cc2O)c1O [MDG616]	full AR antagonists
O=C(N/N=C/c1cc(Cl)ccc1O)c1cc2ccccc2cc1O [MDG605]	full AR antagonists
O=C(O)c1ccc(O)c(/C=N/NC(=O)c2cc3ccccc3cc2O)c1 [MDG630]	full AR antagonists
O=C(N/N=C/c1cccc(Cl)c1)c1cc2ccccc2cc1O [MDG491]	full AR antagonists
COc1ccc(O)c(/C=N/NC(=O)c2cc3ccccc3cc2O)c1 [MDG612]	full AR antagonists
O=C(N/N=C/c1ccccc1O)c1cc2ccccc2cc1O [MDG608]	full AR antagonists

Same assay, conditions: TR-FRET, D11-FxxLF peptide, DHT = EC80; read-out: Activity (AR wt TR-FRET)

Compound	IC50 [µM]
COC(=O)c1ccc(O)c(/C=N/NC(=O)c2cc3ccccc3cc2O)c1 [MDG629]	60.8
COc1cccc(/C=N/NC(=O)c2cc3ccccc3cc2O)c1O [MDG617]	12.2 ± 0.5
O=C(N/N=C/c1cc(O)ccc1O)c1cc2ccccc2cc1O [MDG611]	39.9 ± 16.9
Cc1cccc(/C=N/NC(=O)c2cc3ccccc3cc2O)c1O [MDG616]	13.2 ± 2.8
O=C(N/N=C/c1cc(Cl)ccc1O)c1cc2ccccc2cc1O [MDG605]	10.3 ± 1.4
O=C(O)c1ccc(O)c(/C=N/NC(=O)c2cc3ccccc3cc2O)c1 [MDG630]	43.5 ± 3.7
O=C(N/N=C/c1cccc(Cl)c1)c1cc2ccccc2cc1O [MDG491]	42.7 ± 3.5
COc1ccc(O)c(/C=N/NC(=O)c2cc3ccccc3cc2O)c1 [MDG612]	52.9 ± 13.5
O=C(N/N=C/c1ccccc1O)c1cc2ccccc2cc1O [MDG608]	55.2 ± 19.2
O=C(N/N=C/c1ccccc1[N+](=O)[O-])c1cc2ccccc2cc1O [MDG631]	> 100
Cc1cccc(/C=N/NC(=O)c2cc3ccccc3cc2O)c1 [MDG497]	> 100
O=C(N/N=C/c1ccccc1C(=O)O)c1cc2ccccc2cc1O [MDG490]	> 100
COc1cc(Cl)cc(/C=N/NC(=O)c2cc3ccccc3cc2O)c1O [MDG615]	> 100
COc1cccc(/C=N/NC(=O)c2cc3c(ccc4ccccc43)o2)c1 [MDG505, N′-(3-methoxybenzylidene)naphtho[2,1-b]furan-2-carbohydrazide]	> 100

Target: T2, Glucocorticoid Receptor (GR) LBD (Homo sapiens, UniProt P04150)
T2 construct: purchased Invitrogen PV4683
T2 sequence (P04150 524-758 limits assumed): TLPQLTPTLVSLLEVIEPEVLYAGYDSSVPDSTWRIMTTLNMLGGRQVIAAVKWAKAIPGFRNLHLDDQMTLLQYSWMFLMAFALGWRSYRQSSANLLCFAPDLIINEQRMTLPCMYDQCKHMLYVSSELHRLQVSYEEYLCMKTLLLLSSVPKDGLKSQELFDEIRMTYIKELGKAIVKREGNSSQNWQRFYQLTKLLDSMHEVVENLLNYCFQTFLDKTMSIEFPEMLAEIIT
Assay: TR-FRET SRC1-4 coactivator recruitment assay, GR LBD
Format: biochemical
Conditions: 100 μM to 12.5 μM or single point 100 μM, Dexamethasone = EC80
Description: (§1) Compound binding affinities for Progesterone Receptor (PR), Glucocorticoid Receptor (GR), Estrogen Receptor alpha and Estrogen Receptor beta were determined using TR-FRET (Table 2).
Dexamethasone bound receptor recruitment of the fluorescently labelled SCR1-4 coactivator was unimpaired at screening concentrations up to 100 μM for all the diarylhydrazides evaluated (FIG. 5).
(§2) Lanthascreen TR-FRET AR Coactivator Assay kit (Invitrogen, cat no. PV4381) was used to screen for potential coactivator disruptors.
(§3) TR FRET values were calculated at 10 flashes per well, using a delay time of 100 μs and integration time 200 μs as recommended by the Invitrogen assay guidelines. […] A serial dilution of compounds was firstly prepared in 100×DMSO (Sigma-Aldrich) starting from the maximum desired concentration to achieve a 12 point range concentration using 96-well polypropylene plates (Nalgene Nunc, Rochester, N.Y.). Each 100× solution was diluted to 2× concentration with TR-FRET co-regulator buffer A (Invitrogen proprietary buffer), yielding a final concentration of 1% DMSO in each well.
(§4) D11-FxxLF and Tb antibody were premixed in light protecting vials prior to use. A final concentration of DTT 5 mM was used in the assay buffer in order to prevent protein degradation. All plates (agonist and antagonist mode) were incubated between 2 and 4 hours at room temperature protected from light prior to TR-FRET measurement. […] Data was fitted using the sigmoidal dose response (variable slope) available from Graphpad Prism 5. Y=Bottom+(Top-Bottom)/(1+10^((Log IC50−X)*HillSlope))
(§5) The same procedure was used for AR T877A (Invitrogen cat no. PV4667), PR (Invitrogen cat no. PV4666), ER-α (Invitrogen cat no. PV4544), ER-β (Invitrogen cat no. PV4541) and GR (Invitrogen cat no. PV4683). The assay was adapted to exclude possible non-specific aggregation mechanism of inhibition by adding very low concentration of detergent Triton X-100 (0.001%) to the assay buffer following the Shoichet review guidelines [Shoichet BK (2006) Screening in a spirit haunted world. Drug Discov Today 11:607-615].

Compound	effect on SRC1-4 recruitment by GR LBD
COC(=O)c1ccc(O)c(/C=N/NC(=O)c2cc3ccccc3cc2O)c1 [MDG629]	do not affect
COc1cccc(/C=N/NC(=O)c2cc3ccccc3cc2O)c1O [MDG617]	do not affect
O=C(N/N=C/c1cc(O)ccc1O)c1cc2ccccc2cc1O [MDG611]	do not affect
Cc1cccc(/C=N/NC(=O)c2cc3ccccc3cc2O)c1O [MDG616]	do not affect
O=C(N/N=C/c1cc(Cl)ccc1O)c1cc2ccccc2cc1O [MDG605]	do not affect
O=C(O)c1ccc(O)c(/C=N/NC(=O)c2cc3ccccc3cc2O)c1 [MDG630]	do not affect
O=C(N/N=C/c1cccc(Cl)c1)c1cc2ccccc2cc1O [MDG491]	do not affect
COc1ccc(O)c(/C=N/NC(=O)c2cc3ccccc3cc2O)c1 [MDG612]	do not affect
O=C(N/N=C/c1ccccc1O)c1cc2ccccc2cc1O [MDG608]	do not affect

Same assay, conditions: TR-FRET, Dexamethasone = EC80; ± SEM (n = 6); read-out: NR LBDs IC50 (μM) GR

Compound	IC50 [µM]
COC(=O)c1ccc(O)c(/C=N/NC(=O)c2cc3ccccc3cc2O)c1 [MDG629]	> 100
COc1cccc(/C=N/NC(=O)c2cc3ccccc3cc2O)c1O [MDG617]	> 100
O=C(N/N=C/c1cc(O)ccc1O)c1cc2ccccc2cc1O [MDG611]	> 100
Cc1cccc(/C=N/NC(=O)c2cc3ccccc3cc2O)c1O [MDG616]	> 100
O=C(N/N=C/c1cc(Cl)ccc1O)c1cc2ccccc2cc1O [MDG605]	> 100
O=C(O)c1ccc(O)c(/C=N/NC(=O)c2cc3ccccc3cc2O)c1 [MDG630]	> 100
O=C(N/N=C/c1cccc(Cl)c1)c1cc2ccccc2cc1O [MDG491]	> 100
COc1ccc(O)c(/C=N/NC(=O)c2cc3ccccc3cc2O)c1 [MDG612]	> 100
O=C(N/N=C/c1ccccc1O)c1cc2ccccc2cc1O [MDG608]	> 100

Target: T3, Progesterone Receptor (PR) LBD (Homo sapiens, UniProt P06401)
T3 construct: purchased Invitrogen PV4666
T3 sequence (P06401 679-913 limits assumed): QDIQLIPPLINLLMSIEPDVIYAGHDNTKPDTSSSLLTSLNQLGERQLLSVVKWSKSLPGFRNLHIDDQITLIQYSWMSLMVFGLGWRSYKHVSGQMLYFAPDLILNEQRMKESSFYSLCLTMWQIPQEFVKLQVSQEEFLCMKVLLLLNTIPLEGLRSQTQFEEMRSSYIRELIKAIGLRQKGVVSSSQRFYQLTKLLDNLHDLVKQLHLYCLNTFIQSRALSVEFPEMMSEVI
Assay: TR-FRET SRC1-4 coactivator recruitment assay, PR LBD
Format: biochemical
Conditions: TR-FRET, Progesterone = EC80; ± SEM (n = 6); read-out: NR LBDs IC50 (μM) PR
Description: as §1, §2, §3, §4, §5

Compound	IC50 [µM]
O=C(N/N=C/c1cccc(Cl)c1)c1cc2ccccc2cc1O [MDG491]	50 to 100
COc1ccc(O)c(/C=N/NC(=O)c2cc3ccccc3cc2O)c1 [MDG612]	50 to 100
O=C(N/N=C/c1ccccc1O)c1cc2ccccc2cc1O [MDG608]	> 100

Same assay, conditions: maximal concentration of 100 μM, Progesterone = EC80

Compound	effect on PR LBD recruitment of fluorescent labelled SRC1-4 coactivator
COC(=O)c1ccc(O)c(/C=N/NC(=O)c2cc3ccccc3cc2O)c1 [MDG629]	inhibit
COc1cccc(/C=N/NC(=O)c2cc3ccccc3cc2O)c1O [MDG617]	inhibit
O=C(N/N=C/c1cc(O)ccc1O)c1cc2ccccc2cc1O [MDG611]	inhibit
Cc1cccc(/C=N/NC(=O)c2cc3ccccc3cc2O)c1O [MDG616]	inhibit
O=C(N/N=C/c1cc(Cl)ccc1O)c1cc2ccccc2cc1O [MDG605]	inhibit
O=C(O)c1ccc(O)c(/C=N/NC(=O)c2cc3ccccc3cc2O)c1 [MDG630]	inhibit
O=C(N/N=C/c1cccc(Cl)c1)c1cc2ccccc2cc1O [MDG491]	inhibit
COc1ccc(O)c(/C=N/NC(=O)c2cc3ccccc3cc2O)c1 [MDG612]	inhibit
O=C(N/N=C/c1ccccc1O)c1cc2ccccc2cc1O [MDG608]	inhibit

Target: T4, Estrogen Receptor alpha (ER-α) LBD (Homo sapiens, UniProt P03372)
T4 sequence (P03372 311-547 limits assumed): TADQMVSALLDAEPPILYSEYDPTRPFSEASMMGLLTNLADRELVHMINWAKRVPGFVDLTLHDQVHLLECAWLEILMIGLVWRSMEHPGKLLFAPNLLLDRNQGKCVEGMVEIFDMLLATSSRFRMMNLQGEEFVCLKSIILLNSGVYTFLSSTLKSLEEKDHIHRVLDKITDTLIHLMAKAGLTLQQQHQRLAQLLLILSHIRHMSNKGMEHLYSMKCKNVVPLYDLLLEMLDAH
Assay: TR-FRET PGC1-α coactivator recruitment assay, ERα LBD
Format: biochemical
Conditions: TR-FRET, Estradiol = EC80; ± SEM (n = 6); read-out: NR LBDs IC50 (μM) ER-α
Description: as §1
(§6) Selectivity of the diarylhydrazide scaffold for the AR was determined through a TR-FRET assay in ERα (FIGS. 8A & 9A1) and ERR (FIGS. 8B & 9A2). […] The non-LBP nature of this inhibition was confirmed by a FP assay (FIGS. 9C, 9B1 & 9B2).
as §2, §3, §4, §5

Compound	IC50 [µM]
O=C(N/N=C/c1cc(Cl)ccc1O)c1cc2ccccc2cc1O [MDG605]	50 to 100
O=C(N/N=C/c1cccc(Cl)c1)c1cc2ccccc2cc1O [MDG491]	> 100
O=C(N/N=C/c1ccccc1O)c1cc2ccccc2cc1O [MDG608]	> 100

Same assay, conditions: maximal concentration of 100 μM, Estradiol = EC80

Compound	effect on ERα LBD recruitment of fluorescent labelled PGC1-α coactivator
COC(=O)c1ccc(O)c(/C=N/NC(=O)c2cc3ccccc3cc2O)c1 [MDG629]	inhibit
COc1cccc(/C=N/NC(=O)c2cc3ccccc3cc2O)c1O [MDG617]	inhibit
O=C(N/N=C/c1cc(O)ccc1O)c1cc2ccccc2cc1O [MDG611]	inhibit
Cc1cccc(/C=N/NC(=O)c2cc3ccccc3cc2O)c1O [MDG616]	inhibit
O=C(N/N=C/c1cc(Cl)ccc1O)c1cc2ccccc2cc1O [MDG605]	inhibit
O=C(O)c1ccc(O)c(/C=N/NC(=O)c2cc3ccccc3cc2O)c1 [MDG630]	inhibit
O=C(N/N=C/c1cccc(Cl)c1)c1cc2ccccc2cc1O [MDG491]	inhibit
COc1ccc(O)c(/C=N/NC(=O)c2cc3ccccc3cc2O)c1 [MDG612]	inhibit
O=C(N/N=C/c1ccccc1O)c1cc2ccccc2cc1O [MDG608]	inhibit

Target: Estrogen Receptor beta (ER-β) LBD (Homo sapiens, UniProt Q92731)
Assay: TR-FRET PGC1-α coactivator recruitment assay, ERβ LBD
Format: biochemical
Conditions: TR-FRET, Estradiol = EC80; ± SEM (n = 6); read-out: NR LBDs IC50 (μM) ER-β
Description: as §1, §6, §2, §3, §4, §5

Chain of Estrogen Receptor beta (ER-β) LBD (Q92731 264-498 limits assumed): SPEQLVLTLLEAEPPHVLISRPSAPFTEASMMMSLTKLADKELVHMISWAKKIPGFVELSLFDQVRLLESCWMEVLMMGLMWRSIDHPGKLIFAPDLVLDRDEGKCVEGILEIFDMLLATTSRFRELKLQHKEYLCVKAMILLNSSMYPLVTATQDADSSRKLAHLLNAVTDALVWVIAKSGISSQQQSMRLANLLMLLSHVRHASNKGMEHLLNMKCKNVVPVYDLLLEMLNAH

Compound	IC50 [µM]
O=C(N/N=C/c1cc(Cl)ccc1O)c1cc2ccccc2cc1O [MDG605]	50 to 100
O=C(N/N=C/c1cccc(Cl)c1)c1cc2ccccc2cc1O [MDG491]	> 100

Same assay, conditions: maximal concentration of 100 μM, Estradiol = EC80

Compound	effect on ERβ LBD recruitment of fluorescent labelled PGC1-α coactivator
COC(=O)c1ccc(O)c(/C=N/NC(=O)c2cc3ccccc3cc2O)c1 [MDG629]	inhibit
COc1cccc(/C=N/NC(=O)c2cc3ccccc3cc2O)c1O [MDG617]	inhibit
O=C(N/N=C/c1cc(O)ccc1O)c1cc2ccccc2cc1O [MDG611]	inhibit
Cc1cccc(/C=N/NC(=O)c2cc3ccccc3cc2O)c1O [MDG616]	inhibit
O=C(N/N=C/c1cc(Cl)ccc1O)c1cc2ccccc2cc1O [MDG605]	inhibit
O=C(O)c1ccc(O)c(/C=N/NC(=O)c2cc3ccccc3cc2O)c1 [MDG630]	inhibit
O=C(N/N=C/c1cccc(Cl)c1)c1cc2ccccc2cc1O [MDG491]	inhibit
COc1ccc(O)c(/C=N/NC(=O)c2cc3ccccc3cc2O)c1 [MDG612]	inhibit
O=C(N/N=C/c1ccccc1O)c1cc2ccccc2cc1O [MDG608]	inhibit
